Values of other authors in paper PMC7395068, “The evolution of strategies to minimise the risk of human drug-induced liver injury (DILI) in drug discovery and development” (Archives of Toxicology, 2020).
Where two headings read alike, the source gives them in different places.

Legend:
[1] = system: primary human hepatocytes, NIH3T3 fibroblasts, BSEP, CYP3A4; settings: cited from earlier work
[2] = system: THLE-Null and THLE-3A4 cells; settings: In vitro Assay; ref Gustafsson 2014; cited from earlier work
[3] = system: isolated mouse liver mitochondria; settings: In vitro Assay; ref Porceddu 2012; cited from earlier work
[4] = cited from earlier work
[5] = system: HepG2 cells, primary human hepatocytes; settings: ref Garside 2014, cited from earlier work
[6] = cited from earlier work; remark: listed apart in the source
human hepatocytes = settings: In vitro Assay; ref Xu 2008; cited from earlier work
PHH spheroids = settings: In vitro Assay; ref Vorrink 2018; cited from earlier work
[7] = system: THLE or HepG2 cells, isolated mitochondria, BSEP; settings: In vitro Assay; ref Aleo 2019; cited from earlier work
HepG2 cells [8] = settings: cited from earlier work
HepG2 cells [9] = settings: In vitro Assay; ref Persson 2013; cited from earlier work
rBsep = settings: In vitro Assay; ref Dawson 2012; cited from earlier work
[10] = In vitro Assay, ref Schadt 2015
[11] = In vitro Assay, ref O'Brien 2006

Row | Compound | DILI +VE (5-8), DILI -VE (-4) ([6]; ref Chen 2016) | DILI severity category ([6]; ref Chen 2016) | Structural based (HCI) (human hepatocytes) | hLiMTs ATP <20 x Cmax (PHH spheroids) | In vivo DILI ([4]; ref Vorrink 2018) | In vivo DILI ([4]; ref Xu 2008) | further results
1 | Cc1ccc(Nc2c(F)cccc2Cl)c(CC(=O)O)c1 [lumiracoxib] | – | – | – | – | – | – | Cellular toxicity (3T3 cells) [1, 10]: -VE; Combined Assay [1, 10]: +VE; GSH adduct HML [1, 10]: +VE; Hepatocyte cellular toxicity [1, 10]: -VE; MitoTox 3T3 [1, 10]: -VE; TDI CYP3A4 [1, 10]: -VE; hBSEP inhibition [1, 10]: -VE; THLE-Null [2]: +VE; in vitro data EC2<=1x Cmax [3]: +VE
2 | CC(=O)[C@H]1CC[C@H]2[C@@H]3C[C@H](C)C4=CC(=O)CC[C@]4(C)[C@H]3[C@@H](O)C[C@]12C [medrysone] | – | – | – | – | – | – | In vivo DILI ([4]; assignment in Garside 2014, ref Garside 2014): -VE; Cluster 1-6 +VE Assay, In vitro Assay [5]: +VE
3 | COC(=O)C1=C(C)NC(C)=C(C(=O)OCC(C)C)C1c1ccccc1[N+](=O)[O-] (centres unmarked) [nisoldipine] | -VE | Ambiguous DILI-concern | -VE | -VE | -VE | -VE | In vivo DILI ([4]; […]): -VE
4 | Cc1cc2c(s1)Nc1ccccc1N=C2N1CCN(C)CC1 [olanzapine] | – | – | – | – | – | – | In vivo DILI ([4]; […]): -VE; In vivo DILI ([4]; ref Gustafsson 2014): +VE; In vivo DILI ([4]; ref Schadt 2015): -VE; In vivo DILI ([4]; ref Williams 2019): +VE; THLE-Null [2]: -VE
5 | Nc1ccc(/N=N/c2ccccc2)c(N)n1 [phenazopyridine] | – | – | -VE | -VE | +VE | +VE | Partition Hybrid HRM Score [7]: +VE; Ro2 Hybrid HRM Score [7]: -VE; In vivo DILI ([4]; ref Aleo 2019): -VE
6 | NNCCc1ccccc1 [phenelzine] | +VE | vLess-DILI-Concern | -VE | -VE | -VE | -VE | In vivo DILI ([4]; […]): +VE
7 | CC[C@@H]1C(=O)OC[C@@H]1Cc1cncn1C [pilocarpine] | -VE | Ambiguous DILI-concern | -VE | -VE | -VE | -VE | –
8 | COc1cc(NC(C)CCCN)c2ncccc2c1 (centres unmarked) [primaquine] | -VE | vNo-DILI-Concern | -VE | -VE | -VE | -VE | hBSEP inhibition [1]: -VE; Structural based (HCI) (HepG2 cells [8]; [11]): +VE; Partition Hybrid HRM Score [7]: -VE; Ro2 Hybrid HRM Score [7]: -VE; In vivo DILI ([4]; ref Aleo 2019): -VE; In vivo DILI ([4]; ref O'Brien 2006): -VE; In vivo DILI ([4]; ref Schadt 2015): -VE
9 | CCOC(=O)[C@H](CCc1ccccc1)N[C@@H](C)C(=O)N1Cc2ccccc2C[C@H]1C(=O)O [quinapril] | +VE | vLess-DILI-Concern | -VE | -VE | +VE | +VE | –
10 | C=C[C@H]1C[N@@]2CC[C@H]1C[C@@H]2[C@@H](O)c1ccnc2ccc(OC)cc12 [quinidine] | – | – | – | +VE (IC20 < 20 × Cmax.tot cut-off) | – | – | DILI +VE (5-8), DILI -VE (-4) ([6]; in vivo): +VE; DILI severity category ([6]; in vivo): vLess-DILI-Concern; Cellular toxicity (3T3 cells) [1]: +VE; GSH adduct HML [1]: -VE; TDI CYP3A4 [1]: -VE; hBSEP inhibition [1]: -VE; Structural based (HCI) (HepG2 cells [8]): +VE
11 | O=C(c1ccc(OCCN2CCCCC2)cc1)c1c(-c2ccc(O)cc2)sc2cc(O)ccc12 [raloxifene] | -VE | vNo-DILI-Concern | -VE | -VE | -VE | -VE | In vivo DILI ([4]; […]): -VE
12 | Cc1nc2n(c(=O)c1CCN1CCC(c3noc4cc(F)ccc34)CC1)CCCC2 [risperidone] | – | – | -VE | -VE | +VE | +VE | Cluser analysis (HepG2 cells [9]): +VE; Structural based (HCI) (HepG2 cells [9]): -VE; In vivo DILI ([4]; ref Persson 2013): +VE
13 | O=C(O)c1ccccc1O [salicylic acid] | – | – | – | – | – | – | THLE-Null [2]: -VE; in vitro data EC2<=1x Cmax [3]: +VE; Inhibition of rBsep cutoff<1& cmax u>.2 (rBsep): -VE; Inhibition of rBsep cutoff<3 (rBsep): -VE
14 | Cc1nnc(NS(=O)(=O)c2ccc(N)cc2)s1 [sulfamethizole] | – | – | – | – | – | – | Cluster 1-6 +VE Assay ([5]; In vitro Assay): -VE
15 | CCN1CCCC1CNC(=O)c1cc(S(N)(=O)=O)ccc1OC (centres unmarked) [sulpiride] | – | – | – | – | – | – | In vivo DILI ([4]; in vivo): +VE; THLE-Null [2]: -VE; Inhibition of rBsep cutoff<1& cmax u>.2 (rBsep): -VE; Inhibition of rBsep cutoff<3 (rBsep): -VE
16 | Cn1nnc2c(C(N)=O)ncn2c1=O [temozolomide] | +VE | vLess-DILI-Concern | -VE | -VE | -VE | -VE | Structural based (HCI) (HepG2 cells [8]; [11]): +VE (lowest HCI endpoint IC50 (or in the absence of dose–response < 100 µM) < 30 × total human plasma exposure levels (Cmax.tot)); In vivo DILI ([4]; ref O'Brien 2006): -VE
